Like-named read-outs stand apart in the source and are kept apart here.
Tests used:
[1] = test system: MCP-1 induced THP-1 cell migration; experiment: ChemoTx transwell migration assay, MCP-1 induced migration of THP-1 cells; assay type: cell-based; settings: Homo sapiens
Protocol: In principle, this assay consists of two chambers separated by a porous membrane. The chemoattractant is placed in the lower compartment and the cells are placed in the upper compartment. After incubation for a period at 37° C. the cells move towards the chemoattractant, and the number of cells in the lower compartment is proportional to the chemoattractant activity (relative to a series of controls).
The THP-1 cell line (European Cell Culture Collection) were used as the leukocyte cell population.
First, the cell suspension to be placed in the upper compartment is prepared. The THP-1 cells are pelleted by centrifugation (770×g; 4 mins) and washed with Geys Balanced Salt Solution with 1 mg/ml BSA (GBSS+BSA). This wash is then repeated, and the cells repelleted before being resuspended in a small volume of GBSS+BSA for counting, for example using a standard haemocytometer.
The volume of GBSS+BSA is then adjusted depending on the number of cells present so that the cells are at final density of 4.45×10^6 cells per ml of GBSS+BSA. This ensures that there are […] THP-1 cells in each 25 μl of the solution that will be placed in the upper chamber of the plate.
To test a single compound for its ability to inhibit chemokine induced migration, it is necessary to prepare two lots of cells. The suspension of THP-1 cells at 4.45×10^6 cells/ml is divided into two pots. To one pot the inhibitor under test is added at an appropriate final concentration, in an appropriate vehicle (for example at 1 μM in not more than 1% DMSO). To the second pot an equal volume of GBSS+BSA plus vehicle as appropriate (e.g. not more than 1% DMSO) is added to act as a control.
Next, the chemoattractant solution to be placed in the lower compartment is prepared. For example, MCP-1 is diluted in GBSS+BSA to give a final concentration of 25 ng/ml. This is divided into two pots, as for the cell suspension. To one pot, the test compound is added to the same final concentration as was added to the cell suspension, while to the other pot an equal volume of GBSS+BSA plus vehicle as appropriate (e,g. not more than 1% DMSO) is added. Alternatively, other chemokines may be used (SDF-1α at 7.5 ng/ml; RANTES at 50 ng/ml; IL-8 at 10 ng/ml using neutrophils as the target cell population). In each case it is important to determine (in a separate experiment) the concentration of each chemokine which causes maximal stimulation of migration of the chosen target leukocyte population. This maximal concentration must then be used in experiments to test the inhibitory activity of the compounds of the invention.
Once the chemoattractant solutions for the lower wells and cell solutions for the upper chambers have been prepared, the migration chamber should be assembled. Place 29 μl of the appropriate chemoattractant solution into the lower well of the chamber. Assays should be performed with at least triplicate determinations of each condition. Once all the lower chambers have been filled, apply the porous membrane to the chamber in accordance with the manufacturer's instructions. Finally, apply 25 μl of the appropriate cell solution to each upper chamber. A plastic lid is placed over the entire apparatus to prevent evaporation.
The assembled chamber is incubated at 37° C., 5% CO2, for 2 hours. A suspension of cells in GBSS+BSA is also incubated under identical conditions in a tube: these cells will be used to construct a standard curve for determining the number of cells that have migrated to the lower chamber under each condition.
At the end of the incubation, the liquid cell suspension is gently removed from the upper chamber, and 20 μl of ice-cold 20 mM EDTA in PBS is added to the upper chamber, and the apparatus is incubated at 4° C. for 15 mins. This procedure causes any cells adhering to the underside of the membrane to fall into the lower chamber.
After this incubation the filter is carefully flushed with GBSS+BSA to wash off the EDTA, and then the filter is removed. […]

[2] = Identification of the primary metabolites in pooled 24 h urine (LC-MS-MS full scan); assay type: in vivo; settings: rat, single oral dose 3 mg/kg in 1% CMC, qualitative
Protocol: Urine was collected from rats exposed to a single oral dose (3 mg/kg in 1% CMC) of each compound over a 24 hour period in metabolic cages. The pooled urine sample was then subjected to full scan mass spectral analysis, using the same LC-MS conditions as described in example 1 above. Further MS-MS analysis of the product ions was then performed, and likely fragmentations/re-arrangements assigned from the publicly available Metabolite ID database.
For the major metabolites, the assigned structures were confirmed by synthesis of authentic samples, using methods well known in the art, which were subject to LC-MS-MS analysis under the same conditions as the urine samples.
Note that metabolite ID studies provide only qualitative estimates of the relative amounts of the different metabolites present, and separately validated assays with appropriate internal standards would be required to quantitate each metabolite species.
The detected metabolites, in rank order of concentration detected are shown in FIG. 2 for the five compounds analysed. It is important to note that the methodology used here is not necessarily exhaustive, and further (particularly minor) metabolites may also be present which were below the detection limits for the methods applied here. As a general rule, it can be assumed that metabolites representing 10% or more of the injected dose will be detected (though not necessarily structurally identified) by the methods used here).

[3] = test system: S. Typhinurium (TA 102, TA98 and TA 100); experiment: AMES test, revertant colony formation; assay type: cell-based
Protocol: The five compounds were subjected to a standard AMES test to assess likely genotoxicity. Three His-auxotroph strains of S. Typhinurium (TA 102, TA98 and TA 100) were treated with each of the compounds at 5 concentrations (up to 5 mg/ml) in the presence and absence of S9 rat liver microsomal metabolising system. The number of revertant colonies was then determined by plating on trace-His minimal media.

[4] = Pharmacokinetics following a single dose in rat (LC-MS/MS of blood, one-compartment model); assay type: in vivo; settings: rat, averaged across three rats
Protocol: Compounds were administered as a single dose (either 1 mg/kg bodyweight in 5% DMSO via the intravenous route or 3 mg/kg in 1% carboxymethylcellulose via the oral route) to three adult rats (using different rats for each compound and each route of administration).
Blood was then sampled at various time points (including just prior to dose administration) out to 24 hrs post dose, and the level of the various compounds was assessed using a validated LC-MS/MS assay. Briefly, 3-5 μl of the deproteinised sample was applied to a Waters Atlantis (C18 20×2.1 mm, 3 μm bead size) reverse phase chromatography column equilibrated in 0.1% formic acid in 95:5 water:actetonitrile. Over 3.5 minutes bound material was gradient eluted reaching 0.1% formic acid in 5:95 water:acetonitrile, followed by a step gradient back to 0.1% formic acid in 95:5 water:acetonitrile. The column eluent was then directed to an Applied Biosystems API 4000/3200 QTrap MS/MS mass spectrometer, with a Turbolonspray™ ion source operating in positive ion mode. The interface temperature was set at 650° C., with a 40 ms dwell time for each MRM transition, monitoring the following ions:
The internal standard in each determination was the related compound (S)-3-(2′,2′-dimethylpropanoylamino)-caprolactam, which was spiked into the sample prior to deproteinization. The lower limit of quantitation (LLOQ) for this assay was 2.4 ng/ml for each compound except (I′), where it was 38.1 ng/ml.
Following LC-MS/MS analysis of each collected sample, the pharmacokinetic disposition of the compound was modelled using Kinetica software, a well known software package for such applications.

[5] = test system: LPS-induced TNF-α production; experiment: Sub-lethal LPS-induced endotoxemia, serum TNF-α by ELISA; assay type: in vivo, mouse; settings: for inhibition of LPS-induced TNF-α production: mouse, reference agents, previously shown by applicant, dose not stated
Protocol: In this assay, mice are given a non-specific pro-inflammatory challenge using bacterial endotoxin (LPS), and the extent of the systemic inflammatory response (measured by serum levels of the central pro-inflammatory cytokine TNF-α, which is essentially absent from the blood under normal conditions, but is rapidly elevated in response to a wide range of inflammatory stimuli).
Mice (in groups of 6) were pretreated with various doses of each compound, either by the subcutaneous route 30 mins prior to LPS challenge, or by the oral route (via gavage) 60 mins prior to LPS. The mice were then challenged with an intraperitoneal injection of 750 μg of bacterial LPS and sacrificed 3 hours later. Serum was prepared from a terminal bleed by cardiac puncture, and the concentration of TNF-α is determined by ELISA (R&D Systems). In each experiment, a group of 6 mice receive no LPS to act as a negative control, and a second group receive only LPS (with no candidate inhibitor). The level of TNF-α in serum from these animals, which received LPS without drug pre-treatment, is arbitrarily set to 100% (and is typically of the order of 6,000 pg/ml, compared with levels of <10 pg/ml among the negative control group). […]

[6] = test system: lung leukocyte recruitment and T-helper cell polarisation; experiment: Ovalbumin-induced lung inflammation model of asthma (BAL leukocyte count, splenocyte Th1/Th2 ratio); assay type: in vivo, Brown Norway rat; settings: rat, 30 mg/kg daily oral
Protocol: Adult Brown Norway rats (200-300 g body weight; n=10 per group) were sensitised by a single intraperitoneal injection of 0.1 mg Ovalbumin on day 0. Each rat then received an intratracheal challenge with a solution of 1% ovalbumin (w/v) on day 8, and with 2% ovalbumin (w/v) on days 15, 18 and 21. The animals were then sacrificed 3 hours after the final challenge on day 21. Note that ovalbumin (Sigma; purest available grade) was made endotoxin-free by passage over EndoTrap™ Red columns (purchased from Cambrex; used in accordance with the manufacturer's instructions), and the endotoxin level was confirmed as <5 EU/mg protein using the LAL assay (QCL-1000™; Cambrex; performed in accordance with the manufacturer's instructions; 1 mg of standard endotoxin contains ˜900,000 EU/mg). […]
On sacrifice, total lung leukocyate recruitment was assessed by performing a broncheoalveolar lavage (BAL) using 4 lots of 3 ml sterile phosphate-buffered saline introduced through a tracheal cannula. For each animal, the BAL washes were combined, and the total cell population counted (using a haemocytometer). […]
The spleen was also removed from each […] and placed in RPMI+10% FCS+antibiotics. […] The resulting cell suspension was then centrifuged (328 g; 5 mins) and washed in RPMI+10% FCS+antibiotics, before being resuspended in fresh media and counted using a haemocytometer. […]

## CC1(C(=O)N[C@H]2CCCCNC2=O)CCCCC1 [(III), 3-(1′-methylcyclohexylcarbonylamino)-caprolactam]
[1]; THP-1 cells, maximal dose of chemoattractant, read-out: ED50 MCP-1
  EC50: 0.08 nM
[1]; THP-1 migration inhibition, Table 5, read-out: Functional ED50 versus MCP-1
  EC50: 0.08 nM
[2]
  major metabolite / route of metabolism detected in urine: cytochrome P450-mediated hydroxylation
[3]; TA98 with S9, top dose 5 mg/ml
  Revertant colony formation TA98 + S9: 0.55
[3]; TA98 without S9, top dose 5 mg/ml
  Revertant colony formation TA98: 0.68
[3]; TA100 with S9 rat liver microsomal system, top dose 5 mg/ml
  Revertant colony formation TA100 + S9: 0.81
[3]; TA100 without S9, top dose 5 mg/ml
  Revertant colony formation TA100: 0.79
[3]; TA102 with S9, top dose 5 mg/ml
  Revertant colony formation TA102 + S9: 0.88
[3]; TA102 without S9, top dose 5 mg/ml
  Revertant colony formation TA102: 0.69
[4]; blood, single oral dose 3 mg/kg in 1% CMC, read-out: Exposure (AUC 0->infinity) (converted)
  AUC(0-inf): 48.3 ng·h/mL
[4]; 1 mg/kg iv in 5% DMSO and 3 mg/kg oral in 1% CMC, one-compartment model
  F (%) oral bioavailability: 5%
[4]; one-compartment model
  Vss (L/kg) volume of distribution: 0.6 L/kg
  clearance: 55 mL/min/kg
  t½ (mins) dominant plasma half-life: 11 min

## C=CCCCCCCCCC(=O)N[C@H]1CCC(=O)NC1=O [NR58,4]
[5]; models of acute inflammation such as LPS-induced endotoxemia
  fold less potent in vivo than 2′,2′-dimethylpropanoylamino)-tetrahydropyridin-2-one: at least 250 fold

## C[C@@H]1C[C@H]2[C@@H]3CCC4=CC(=O)C=C[C@]4(C)[C@@]3(F)[C@@H](O)C[C@]2(C)[C@@]1(O)C(=O)CO [dexamethasone]
[5]
  inhibition of LPS-induced TNF-α production: at least 90%

## CC(C)(O)c1ccccc1CC[C@@H](SCC1(CC(=O)O)CC1)c1cccc(/C=C/c2ccc3ccc(Cl)cc3n2)c1 [monteleukast]
[6]
  number of leukocytes in the BAL washes: significantly reduced the number of leukocytes in the BAL washes

## O=C1CCC(N2C(=O)c3ccccc3C2=O)C(=O)N1 (stereo not drawn) [thalidomide]
[5]
  inhibition of LPS-induced TNF-α production: about 60%
